Reference: article PMC7854658, “Structural basis for ligand recognition of the neuropeptide Y Y2 receptor” (Nature Communications, 2021)
Positions count from the first letter of the chain named. Several values for one entry are separate records, joined by “and”; a condition that tells them apart may be missing. Equal entries are not always repeated.

Tests used:
Assay in all cases: NPY-induced IP accumulation (IP-One), mutant
Format in all cases: cell-based
[1] = target: T1, Y2R mutant F307^7.35E (Homo sapiens, UniProt P49146, F307E); settings: 1 μM antagonist, source data Fig. 3
T1 construct: expressed in transfected cells; host or cells: HEK293
Description: (§1) The plasmid hY2R_eYFP_pVitro2 encoding the WT Y2R and a fluorophore for investigating the receptor localization was used as template for the generation of receptor point mutations as previously described. Mutagenesis PCR was performed using the Phusion High-Fidelity Polymerase (Thermo Fisher Scientific, Waltham, MA, USA). […] The preparations of the plasmid DNA were performed using the Wizard plus Mini or Midi DNA purification kit (Promega, Madison, WI, USA).
(§2) To determine the contribution of residues to antagonist binding, IP-One accumulation assays (Cisbio, Codolet, France) were performed. HEK293 cells were seeded into six-well plates and transiently cotransfected with 3200 ng of receptor plasmid DNA and 800 ng of the chimeric G protein (Gα∆6qi4myr) to redirect the Gαi signaling pathway to the Gαq phospholipase C pathway. Transient transfection was carried out using Metafectene as transfection reagent according to the manufacturer’s protocol (Biontex, Munich, Germany) over night. The cells were then reseeded into white 384-well microplates (Greiner Bio-One, Kremsmünster, Austria) at a density of 15,000 cells per well and grown for additional 24 h.
(§3) All dilutions were performed in HBSS containing 20 mM LiCl (stimulation buffer) and DMSO with a final concentration of 0.01%.
(§4) To determine the amount of cellular IPs, the FRET acceptor (IP1-d2) and the FRET donor (anti-IP1-Cryptate) were reconstituted and diluted in lysis and detection buffer (1:20) as described in the manufacturer’s protocol. Three microliters of both solutions were added, and the cells were incubated on a tumbler for 60 min.

[2] = target: T2, Y2R mutant L183^4.60A (Homo sapiens, UniProt P49146, L183A); settings: 1 μM antagonist, source data Fig. 3
T2 construct: expressed in transfected cells; host or cells: HEK293
Description: as §1, §2, §3, §4

[3] = target: T3, Y2R mutant Q288^6.55A (Homo sapiens, UniProt P49146, Q288A)
T3 construct: expressed in transfected cells; host or cells: HEK293
T3 sequence (P49146 1-381 Q288A): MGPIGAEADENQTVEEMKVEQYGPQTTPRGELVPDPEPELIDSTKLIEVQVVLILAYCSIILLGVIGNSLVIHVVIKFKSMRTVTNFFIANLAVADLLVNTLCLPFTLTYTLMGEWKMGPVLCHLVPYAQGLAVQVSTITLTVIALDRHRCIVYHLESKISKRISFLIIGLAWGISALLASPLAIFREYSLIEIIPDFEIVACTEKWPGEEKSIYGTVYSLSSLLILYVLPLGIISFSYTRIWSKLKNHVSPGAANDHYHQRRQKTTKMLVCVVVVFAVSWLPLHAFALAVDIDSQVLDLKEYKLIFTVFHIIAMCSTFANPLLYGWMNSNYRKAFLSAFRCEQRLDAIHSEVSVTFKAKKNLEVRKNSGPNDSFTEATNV
Description: as §1, §2, §3, §4

[4] = target: T4, Y2R mutant S220^5.39A (Homo sapiens, UniProt P49146, S220A)
T4 construct: expressed in transfected cells; host or cells: HEK293
T4 sequence (P49146 1-381 S220A): T3 sequence (P49146 1-381 Q288A) with S220A, A288Q
Description: as §1, §2, §3, §4

[5] = target: T5, Y2R mutant T308^7.36A (Homo sapiens, UniProt P49146, T308A)
T5 construct: expressed in transfected cells; host or cells: HEK293
T5 sequence (P49146 1-381 T308A): T3 sequence (P49146 1-381 Q288A) with A288Q, T308A
Description: as §1, §2, §3, §4

[6] = target: T6, Y2R mutant V126^3.28A (Homo sapiens, UniProt P49146, V126A)
T6 construct: expressed in transfected cells; host or cells: HEK293
T6 sequence (P49146 1-381 V126A): T3 sequence (P49146 1-381 Q288A) with V126A, A288Q
Description: as §1, §2, §3, §4

[7] = target: T7, Y2R mutant Y110^2.64A (Homo sapiens, UniProt P49146, Y110A); settings: 1 μM antagonist, source data Fig. 3
T7 construct: expressed in transfected cells; host or cells: HEK293
Description: as §1, §2, §3, §4

[8] = target: T8, Y2R mutant Y219^5.38A (Homo sapiens, UniProt P49146, Y219A); settings: 1 μM antagonist, source data Fig. 3
T8 construct: expressed in transfected cells; host or cells: HEK293
Description: as §1, §2, §3, §4

[9] = 1 μM antagonist, source data Fig. 3
[10] = EC50(NPY + 1 μM antagonist)/EC50(NPY)
[11] = EC50 ratio (WT)/EC50 ratio (mutant)

T7 sequence (P49146 whole entry Y110A): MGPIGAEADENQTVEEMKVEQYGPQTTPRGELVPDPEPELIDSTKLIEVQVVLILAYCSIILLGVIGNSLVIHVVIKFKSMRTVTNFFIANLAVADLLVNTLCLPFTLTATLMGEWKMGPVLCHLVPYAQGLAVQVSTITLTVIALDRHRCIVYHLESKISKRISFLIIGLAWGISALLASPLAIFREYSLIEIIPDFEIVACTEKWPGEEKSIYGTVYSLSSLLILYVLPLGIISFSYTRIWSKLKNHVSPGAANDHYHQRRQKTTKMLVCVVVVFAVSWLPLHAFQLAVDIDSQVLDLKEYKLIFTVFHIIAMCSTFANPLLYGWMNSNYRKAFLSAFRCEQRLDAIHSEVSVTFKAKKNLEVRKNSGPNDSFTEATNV
T2 sequence (P49146 whole entry L183A): as the sequence (P49146 whole entry Y110A) above, with A110Y, L183A counted along it
T1 sequence (P49146 whole entry F307E): as the sequence (P49146 whole entry Y110A) above, with A110Y, F307E counted along it
T8 sequence (P49146 whole entry Y219A): as the sequence (P49146 whole entry Y110A) above, with A110Y, Y219A counted along it

Average EC50 ratio [1]: 232.3
EC50 ratio (individual experiments) [1]: 75.3 and 389.3
Average EC50 ratio [2]: 10.3
EC50 ratio (individual experiments) [2]: 6.3 and 14.3
Average EC50 ratio [3, 9]: 143.2
EC50 ratio (individual experiments) [3, 9]: 101.5 and 185.0
EC50 ratio [3, 10]: 102 and 185
Ratio change (fold) [3, 11]: 1.6 fold and 0.9 fold
Average EC50 ratio [4, 9]: 502.4
EC50 ratio (individual experiments) [4, 9]: 515.1 and 489.7
EC50 ratio [4, 10]: 515 and 490
Ratio change (fold) [4, 11]: 0.3 fold
Average EC50 ratio [5, 9]: 233.8
EC50 ratio (individual experiments) [5, 9]: 248.2 and 219.5
EC50 ratio [5, 10]: 248 and 219
Ratio change (fold) [5, 11]: 0.6 fold and 0.7 fold
Average EC50 ratio [6, 9]: 302.6
EC50 ratio (individual experiments) [6, 9]: 285.2 and 320.0
EC50 ratio [6, 10]: 285 and 320
Ratio change (fold) [6, 11]: 0.6 fold and 0.5 fold
Average EC50 ratio [7]: 47.6
EC50 ratio (individual experiments) [7]: 25.1 and 70.1
Average EC50 ratio [8]: 97.9
EC50 ratio (individual experiments) [8]: 48.6 and 147.2
SMILES: N=C(N)NCCC[C@H](NC(=O)CC1(CC(=O)N2CCN(C3c4ccccc4NC(=O)c4ccccc43)CC2)CCCC1)C(=O)NCCn1c(=O)n(-c2ccccc2)n(-c2ccccc2)c1=O (stereo partly drawn) [BIIE0246]
